pIC50: −log10 of the molar value.
Assays:
NFS-60 cells = test: NFS-60 cell assay (CCK proliferation, M-CSF stimulated); type: cell-based; conditions: Mus musculus, compound 0.5 uM, 72 h, 40 ng/mL M-CSF, read-out: inhibition ratio % (NFS-60 cell proliferation)
Description: Example 54: NFS-60 Cell Assay
1. Experimental Materials
Mouse Myelogenous Leukemia Cells (NFS-60)
Using DMSO to dissolve, and the required concentration was prepared with full culture medium without factors.
Penicillin-streptomycin: TRANS
Mouse M-CSF/CSF-1 Protein: Sino Biological Inc, No. 51112-MNAH
M-CSF: Qilu Pharmaceutical co., Ltd.
The logarithmic growth phase of NFS-60 cells (1640+10% FBS+40 ng/ml M-CSF+1% Penicillin-streptomycin) were centrifuged (1000 r/min) and cultured in a factor-free medium at 37° C., 5% CO2 for 24 hours. Centrifugating (1000 r/min), the culture medium was replaced by new culture medium including 40 ng/mL factors, and inoculated on 96-well plate by 2*10^4 cells/mL, 100 μL/hole. After 16 hours, the tested compounds were added 10 μL/hole, 3 duplicate holes per compound, 37° C., 5% CO2, continue to cultured for 72 h. Then 10 μL CCK reagent was added to each hole. After incubation for 4 hours, the absorbance of each hole was measured at 450 nm wavelength. According to Formula: Inhibitory rate (%)=(1-OD value of test pore/OD value of solvent control pore)×100% 3. Experimental Results The experimental results of the inhibition of NFS-60 cell proliferation by the compounds prepared in Example 3-52, 0.5 uM, are shown in the following table: […]

CSF-1R = target: T1, CSF-1R (Homo sapiens, UniProt P07333); test: CSF-1R kinase assay (HTRF kinEASE TK); type: biochemical; conditions: ATP 2.5 uM, enzyme 0.012 ng/ul, read-out: In vitro inhibitory activity of CSF-1R IC50
T1 construct: purchased Invitrogen PV3249
T1 sequence (P07333 20-972): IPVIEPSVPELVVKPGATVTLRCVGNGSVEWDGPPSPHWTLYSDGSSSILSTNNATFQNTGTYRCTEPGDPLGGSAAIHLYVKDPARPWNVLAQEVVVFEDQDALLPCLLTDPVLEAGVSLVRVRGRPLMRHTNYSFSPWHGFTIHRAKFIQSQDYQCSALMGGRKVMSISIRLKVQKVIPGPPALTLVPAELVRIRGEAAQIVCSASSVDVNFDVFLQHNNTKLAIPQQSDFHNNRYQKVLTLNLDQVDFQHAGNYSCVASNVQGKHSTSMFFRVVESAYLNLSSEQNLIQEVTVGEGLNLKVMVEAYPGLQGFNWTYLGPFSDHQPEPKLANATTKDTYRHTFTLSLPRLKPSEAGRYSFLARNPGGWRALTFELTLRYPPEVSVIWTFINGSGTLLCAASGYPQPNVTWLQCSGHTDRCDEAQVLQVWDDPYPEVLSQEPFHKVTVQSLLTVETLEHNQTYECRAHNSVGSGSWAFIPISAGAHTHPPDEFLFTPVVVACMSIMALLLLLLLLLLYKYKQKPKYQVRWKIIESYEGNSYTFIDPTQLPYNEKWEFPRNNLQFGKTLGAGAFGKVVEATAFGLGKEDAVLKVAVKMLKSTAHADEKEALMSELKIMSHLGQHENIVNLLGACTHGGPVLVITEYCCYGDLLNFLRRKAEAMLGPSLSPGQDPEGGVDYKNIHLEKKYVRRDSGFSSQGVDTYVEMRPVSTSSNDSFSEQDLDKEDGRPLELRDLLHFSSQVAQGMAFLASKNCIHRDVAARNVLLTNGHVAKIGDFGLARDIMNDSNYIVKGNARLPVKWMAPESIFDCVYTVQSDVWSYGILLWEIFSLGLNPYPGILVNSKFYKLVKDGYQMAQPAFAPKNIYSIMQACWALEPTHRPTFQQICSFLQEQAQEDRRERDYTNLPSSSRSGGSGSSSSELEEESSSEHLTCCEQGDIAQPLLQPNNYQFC
Description: Example 53: CSF-1R Kinase Assay
I. Materials and Instruments
• 2104 EnVision® Multilabel Reader (PerkinElmer) • OptiPlate-384, White Opaque 384-well MicroPlate (Cat.6007290, PerkinElmer) • HTRF kinEASE TK (Cat.62TKOPEC, Cisbio) • CSF-1R(Cat. PV3249, Invitrogen) • ATP 10 mM (Cat. PV3227, Invitrogen) • DTT 1 M (Cat. D5545, Sigma) • MgCl2 1 M (Cat. M8266, Sigma) • MnCl2 1 M (Cat.244589. Sigma)
II. Experimental Procedure
Substrate-TK and ATP were diluted to 5 times of the reaction concentration by 1×Kinase Buffer. CSF1R enzyme was diluted to 5×enzyme solution by 1×kinase buffer. Sa-XL665 was diluted to 4×Sa-XL665 solution by Detection Buffer. 100×TK-Ab-Cryptate Solution TK-Ab-Cryptate was diluted to 100×TK-Ab-Cryptate solution by Detection Buffer. 2. Experimental Procedure After all reagents had been prepared according to the above method, except enzymes, the sample was added after equilibrium to room temperature. • a. Firstly, 2.5% DMSO solution was prepared by using 1×kinase buffer (the high concentration of DMSO will affect the reaction and control the final concentration of DMSO to 1%). Then the compounds were diluted by 2.5% DMSO solution corresponding to the enzyme. The screening concentration of the compounds was 4 times gradient dilution from 1000 nM, and 8 concentrations. In addition to the control pore, 4 microlitres of diluted solution containing 2.5% DMSO were added to the reaction pore and 4 microlitres of previously prepared solution containing 2.5% DMSO were added to the control pore. • b. 2 microlitres of previously prepared TK-biotin substrate solution was added to all reaction pore (the amount of substrate used for enzyme screening is shown in Table 15). • c. Adding 2 microlitres of CSF1R enzyme solution of corresponding concentration (the amount of enzyme is shown in Table 15) to all reaction pore except negative pore. The negative pore is supplemented with 2 microlitres of enzyme corresponding to 1 xkinase buffer. After mixing, the compound and enzyme can be fully combined by incubating at room temperature for 10 minutes. • d. Enzyme reaction was initiated by adding 2 microlitres ATP solution of corresponding concentration to all reaction pore. The reaction time was 30 minutes (the corresponding ATP concentration and reaction time at enzyme screening were shown in Table 15). • e. Preparing the test solution 5 minutes before the end of kinase reaction. Streptavidin-XL665 and TK antibody europium cryptate (1:100) were prepared with detection buffer in the kit (the corresponding concentration of detection reagent for enzyme screening is shown in Table 15). • f. After the kinase reaction, 5 microlitres of diluted Streptavidin-XL665 were added to all reaction pore, mixing, and then the diluted TK antibody europium cryptate solution was added immediately. • g. After 1 hour reaction at room temperature, the fluorescence signals (320 nm stimulation, 665 nm, 615 nm emission) were detected by ENVISION (Perkinelmer) instrument. The inhibition rate of each pore was calculated by full active pore and background signal pore, and the average value of complex pore was obtained. Meanwhile, the half inhibitory activity (IC50) of each compound was fitted by professional drawing analysis software PRISM 5.0. The Flow Chart of the Experiment is as Follows:
3. Data Analysis Emission Ratio (ER)=665 nm Emission signal/615 nm Emission signal Inhibitory rate=(ERpositive−ERsample)/(ERpositive−ERnegative)*100% Using Graphpad Prism 5 and log (inhibitor) vs. normalized response to fit IC50 curve and calculate IC50 value. The IC50 data of the compounds prepared in Representative Examples 3-52 are as follows (Table 18): […]

[1] = test system: MC-38 transplanted tumors; test: Animal pharmacodynamics experiment: MC-38 transplanted tumors in C57 mice; type: in vivo; conditions: 2 weeks; for inhibition in vivo at 30 mg/kg: Mus musculus, MC-38, po, 336 h, compound alone, 30 mg/kg intragastrically daily, read-out: inhibition ratio (tumor size, MC-38 transplanted tumors); for inhibition ratio (tumor size, MC-38 transplanted tumors): compound 30 mg/kg intragastrically daily + anti-PD1 10 mg/kg i.p. once every 3 days
Description: Example 55: Animal Pharmacodynamics Experiment
In this study. MC-38 cell lines were inoculated in C57 mice
Experimental animal: C57 mice, male, 5-6 weeks old (18-22 g)
Inoculation: 2×10^6/0.1 mL, Matrigel is added in 3:1 ratio
PD1: InVivoMAb anti-mouse PD-1 (CD279). BioXCell
Group: On day 4 after inoculating, all the mice were divided into 13 groups, respectively model group, the anti-PD1 2 mg/kg group, anti-PD110 mg/kg group, testing compounds alone, and the tested compound combine with anti-PD1 10 mg/kg. Compounds were intragastrically administered daily at a dose of 30 mg/kg and anti-PD1 was intraperitoneally injected once every 3 days. The drug was administered continuously for 2 weeks. In model group, 80% glycerol+20% CMC-Na was given daily.
Results: The experimental results of anti-PD1 combined with the compounds prepared in the representative example 3-52 on the inhibition of tumor size of MC-38 transplanted tumors are as follows: […]

Structure (SMILES)	inhibition at 0.5 µM (NFS-60 cells) [%]	pIC50 (CSF-1R)	inhibition in vivo at 30 mg/kg [1] [%]	inhibition ratio (tumor size, MC-38 transplanted tumors) [1]
C[C@@H](Oc1cc(-c2cnn(C)c2)cnc1N)c1cccc(NC(=O)c2cccc([S+](C)[O-])c2)c1 (stereo partly drawn) [Compound 367, N-(3-((R)-1-((2-amino-5-(1-methyl-1H-pyrazol-4-yl)pyridin-3-yl)oxy)ethyl)phenyl)-3-(methylsulfinyl)benzamide]	≥ 50	≥ 7.30	–	–
CSc1ccc(C(=O)Nc2cccc([C@@H](C)Oc3cc(-c4cnn(C)c4)cnc3N)c2)cc1 [Compound 181, (R)-N-(3-(1-((2-amino-5-(1-methyl-1H-pyrazol-4-yl)pyridin-3-yl)oxy)ethyl)phenyl)-4-(methylthio)benzamide]	≥ 50	≥ 7.30	–	–
Cc1cccc(C(=O)Nc2cccc([C@@H](C)Oc3cc(Cl)cnc3N)c2)c1Cl [Compound 85, (R)-N-(3-(1-((2-amino-5-chloropyridin-3-yl)oxy)ethyl)-phenyl)-2-chloro-3-methylbenzamide]	–	≥ 7.30	< 10	+++ (+++: ≥30%)
C[C@@H](Oc1cc(-c2cnn(C3CC3)c2)cnc1N)c1cccc(NC(=O)c2cccc(N(C)C)c2)c1 [Compound 212, (R)-N-(3-(1-((2-amino-5-(1-cyclo-propyl-1H-pyrazol-4-yl)pyridin-3-yl)oxy)ethyl)phenyl)-3-(dimethyl-amino)benzamide]	≥ 50	–	–	–
C[C@@H](Oc1cc(-c2cccnc2)cnc1N)c1cccc(NC(=O)c2cccc(N(C)C)c2)c1 [Compound 205, (R)-N-(3-(1-((6-amino-[3,3′-bipyridin]-5-yl)oxy)ethyl)phenyl)-3-(dimethylamino)benzamide]	≥ 50	≥ 7.30	–	–
Cc1cccc(C(=O)Nc2cccc([C@H](C)Oc3cc(Cl)cnc3N)c2)c1 [Compound 54, (S)-N-(3-(1-((2-amino-5-chloropyridin-3-yl)oxy)ethyl)-phenyl)-3-methylbenzamide]	10 to 50	≥ 7.30	–	–
C[C@@H](Oc1cc(Cl)cnc1N)c1cccc(NC(=O)c2ccc3c(c2)S(=O)(=O)CC3)c1 [Compound 134, (R)-N-(3-(1-((2-amino-5-chloropyridin-3-yl)oxy)ethyl)-phenyl)-2,3-dihydrobenzo[b]thiophene-6-carboxamide 1,1-dioxide]	≥ 50	≥ 7.30	–	–
COc1cccc(C(=O)Nc2cccc([C@@H](C)Oc3cc(Cl)cnc3N)c2)c1 [Compound 74, (R)-N-(3-(1-((2-amino-5-chloropyridin-3-yl)oxy)ethyl)-phenyl)-3-methoxybenzamide]	≥ 50	≥ 7.30	–	–
C[C@@H](Oc1cc(-c2cccnc2)cnc1N)c1cccc(NC(=O)c2cccc(C3CC3)c2)c1 [Compound 200, (R)-N-(3-(1-((6-amino-[3,3′-bipyridin]-5-yl)oxy)ethyl)phenyl)-3-cyclopropylbenzamide]	≥ 50	–	–	–
Cc1cncc(C(=O)Nc2cccc([C@@H](C)Oc3cc(Cl)cnc3N)c2)c1 [Compound 83, (R)-N-(3-(1-((2-amino-5-chloropyridin-3-yl)oxy)ethyl)-phenyl)-5-methylnicotinamide]	–	≥ 7.30	< 10	+++ (+++: ≥30%)
Cc1cc(C)cc(C(=O)Nc2cccc([C@@H](C)Oc3cc(Cl)cnc3N)c2)c1 [Compound 137, (R)-N-(3-(1-((2-amino-5-chloropyridin-3-yl)oxy)ethyl)-phenyl)-3,5-dimethylbenzamide]	≥ 50	–	–	–
Cc1ccc(C(=O)Nc2cccc([C@@H](C)Oc3cc(Cl)cnc3N)c2)cc1C [Compound 132, (R)-N-(3-(1-((2-amino-5-chloropyridin-3-yl)oxy)ethyl)-phenyl)-3,4-dimethylbenzamide]	≥ 50	≥ 7.30	–	–
C[C@@H](Oc1cc(-c2cccnc2)cnc1N)c1cccc(NC(=O)c2cccc(S(C)(=O)=O)c2)c1 [Compound 199, (R)-N-(3-(1-((6-amino-[3,3′-bipyridin]-5-yl)oxy)ethyl)phenyl)-3-(methylsulfonyl)benzamide]	≥ 50	–	–	–
C[C@@H](Oc1cc(-c2cnn(C)c2)cnc1N)c1cccc(NC(=O)c2cccc(S(C)(=O)=O)c2)c1 [Compound 168, (R)-N-(3-(1-((2-amino-5-(1-methyl-1H-pyrazol-4-yl)pyridin-3-yl)oxy)ethyl)phenyl)-3-(methylsulfonyl)benzamide]	≥ 50	–	–	–
Cc1ccc(C(=O)Nc2cccc([C@@H](C)Oc3cc(Cl)cnc3N)c2)cc1S(C)(=O)=O [Compound 126, (R)-N-(3-(1-((2-amino-5-chloropyridin-3-yl)oxy)ethyl)-phenyl)-4-methyl-3-(methylsulfonyl)benzamide]	≥ 50	–	–	–
Cc1ccc(C(=O)Nc2cccc([C@@H](C)Oc3cc(-c4cccnc4)cnc3N)c2)cc1N(C)C [Compound 206, (R)-N-(3-(1-((6-amino-[3,3′-bipyridin]-5-yl)oxy)ethyl)phenyl)-3-(dimethylamino)-4-methylbenzamide]	≥ 50	≥ 7.30	–	–
C[C@H](Oc1cc(Cl)cnc1N)c1cccc(NC(=O)c2cccc(C3CC3)c2)c1 [Compound 70, (S)-N-(3-(1-((2-amino-5-chloropyridin-3-yl)oxy)ethyl)-phenyl)-3-cyclopropylbenzamide]	≥ 50	–	–	–
CSc1cccc(C(=O)Nc2cccc([C@@H](C)Oc3cc(-c4cnn(C)c4)cnc3N)c2)c1 [Compound 180, (R)-N-(3-(1-((2-amino-5-(1-methyl-1H-pyrazol-4-yl)pyridin-3-yl)oxy)ethyl)phenyl)-3-(methylthio)benzamide]	≥ 50	≥ 7.30	–	–

From patent US11767296B2, “Heteroaryl compounds as kinase inhibitor” (FUJIAN HAIXI PHARMACEUTICALS CO., LTD, priority 2018, dated 2023)
